Tests used:
[1] = biological target: T1, Human recombinant renin (Homo sapiens, UniProt P00797); assay: Inhibition of human recombinant renin (QFRET, buffer); format: biochemical; details: buffer: 50 mM MOPS pH 7.4, 100 mM NaCl, 0.002% Tween 20; 37° C., 3 hours
T1 construct: purchased Proteos
T1 sequence (P00797 67-406): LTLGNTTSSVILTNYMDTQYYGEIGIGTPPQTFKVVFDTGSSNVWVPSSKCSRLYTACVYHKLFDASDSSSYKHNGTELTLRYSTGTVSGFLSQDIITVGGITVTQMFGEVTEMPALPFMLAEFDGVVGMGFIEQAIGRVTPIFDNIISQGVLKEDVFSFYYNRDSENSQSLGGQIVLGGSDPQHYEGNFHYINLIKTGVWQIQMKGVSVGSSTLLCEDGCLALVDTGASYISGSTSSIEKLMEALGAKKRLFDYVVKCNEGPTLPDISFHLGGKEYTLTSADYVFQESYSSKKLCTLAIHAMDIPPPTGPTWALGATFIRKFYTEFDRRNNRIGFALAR
Experimental: Inhibition of Human Recombinant Renin
Human recombinant renin (Proteos) in 50 mM MOPS pH 7.4, 100 mM NaCl, 0.002% Tween 20 at a final concentration of […] is incubated with inhibitors from a 50 fold concentrated DMSO solution and 6 μM of an internally-quenched fluorescent peptide: DNP-[…]D,L-Amp (SEQ ID NO: 1); Paschalidou K. et al., Biochem J., 2004, 382, 1031). The reactions take place in a Costar 384 well black plate (#3573) at 37° C. for 3 hours. Fluorescence is measured at times 0 and 3 hours with a SpectraMax Gemini EM reader set at an excitation wavelength of 328 nm and at an emission wavelength of 388 nm. Background fluorescence at t=0 is subtracted from the measurement at t=3 hours. Inhibitory activity of the compounds is expressed as IC50.

[2] = biological target: T2, recombinant renin in human plasma (Homo sapiens, UniProt P00797); assay: Inhibition of renin in human plasma (QFRET, plasma); format: biochemical; details: human EDTA plasma with 1 nM recombinant renin added; 37° C., 1 hour
T2 construct: purchased Proteos
T2 sequence (P00797 67-406): T1 sequence (P00797 67-406)
Experimental: Inhibition of Renin in Human Plasma
Human EDTA-collected plasma is rapidly thawed in warm water and centrifuged at 2900 g for 15 minutes at 4° C. The supernatant is collected and recombinant renin (Proteos) is added at a final concentration of 1 nM. The plasma is transferred to a Costar black 384 well plate (#3573). Renin inhibitors are added from a 17.5 fold concentrated DMSO solution and pre-incubated at 37° C. for 10 minutes. The internally-quench fluorescent peptide QXL520™-[…](5-FAM) (Anaspec), SEQ ID NO: 2, is diluted in 3M Tris pH 7.2, 200 mM EDTA and added to the plasma. The final concentrations are: 6 μM substrate, 342 mM Tris, 23 mM EDTA. The plate is incubated at 37° C. for 1 hour. The plate is read in a SpectraMax Gemini EM reader set at an excitation wavelength of 490 nm and an emission wavelength of 520 nm at times 0 and 1 hour. Background fluorescence at t=0 is subtracted from the measurement at t=1 hour. Inhibitory activity of the compounds is expressed as IC50.

`CC(=O)NCCc1ccccc1-c1ccc([C@H]2CNCC[C@]2(O)c2ccc(F)c(F)c2)c(C)c1` (racemic) [Structure 51] was tested, and the IC50 [1] was 0.5 nM and the IC50 [2] was 5 nM.
Work on `COCCCc1ccccc1-c1ccc([C@H]2CNCC[C@@H]2c2ccc(N)nc2)c(Cl)c1` (racemic) [Structure 52] yielded an IC50 [1] of 150 nM and an IC50 [2] of 1630 nM.
For `COCCCc1ccccc1-c1ccc([C@H]2CNCC[C@@H]2c2cccnc2N)c(Cl)c1` (racemic) [Structure 53], the IC50 [1] was 12 nM and the IC50 [2] was 250 nM.
For `COC[C@H](C)COCc1ccc([C@@]2(O)CCNC[C@@H]2c2ccc(-c3ccccc3CCNC(C)=O)cc2C)cc1` (racemic) [Structure 54], the IC50 [1] was 0.13 nM and the IC50 [2] was 1.2 nM.
For `COCC(F)(F)COCc1ccc([C@@]2(O)CCNC[C@@H]2c2ccc(-c3ccccc3CCNC(C)=O)cc2C)cc1` (racemic) [Structure 55], the IC50 [1] was 0.17 nM and the IC50 [2] was 0.95 nM.
With `CC(=O)NCCc1ccccc1-c1ccc([C@H]2CNCC[C@]2(O)c2ccc(COCCOC(C)C)cc2)c(C)c1` (racemic) [Structure 56] the IC50 [1] was 0.26 nM and the IC50 [2] was 3.8 nM.
`COCCCc1ccccc1-c1ccc([C@H]2CNCC[C@@H]2c2ccn(C)c(=O)c2)c(Cl)c1` (racemic) [Structure 57] gave an IC50 [1] of 6.4 nM and an IC50 [2] of 80 nM.
`CC(=O)NCCc1ccccc1-c1ccc([C@H]2CNCC[C@@H]2c2ccn(C)c(=O)c2)c(Cl)c1` (racemic) [Structure 58] was tested, and the IC50 [1] was 3.6 nM and the IC50 [2] was 7.1 nM.
With `CCC(=O)NCCc1ccccc1-c1ccc([C@H]2CNCC[C@@H]2c2ccn(C)c(=O)c2)c(Cl)c1` (racemic) [Structure 61] the IC50 [1] was 6.2 nM and the IC50 [2] was 7.9 nM.
Compound `COC(=O)NCCc1ccccc1-c1ccc([C@H]2CNCC[C@@H]2c2ccn(C)c(=O)c2)c(Cl)c1` (racemic) [Structure 62] has an IC50 [1] of 4.2 nM and an IC50 [2] of 4.9 nM.
`CCOC(=O)NCCc1ccccc1-c1ccc([C@H]2CNCC[C@@H]2c2ccn(C)c(=O)c2)c(Cl)c1` (racemic) [Structure 63] showed an IC50 [1] of 16 nM and an IC50 [2] of 24 nM.
Compound `COCC(=O)NCCc1ccccc1-c1ccc([C@H]2CNCC[C@@H]2c2ccn(C)c(=O)c2)c(Cl)c1` (racemic) [Structure 64] has an IC50 [1] of 110 nM and an IC50 [2] of 77 nM.
`CC(=O)NCCc1ccc(F)cc1-c1ccc([C@H]2CNCC[C@@H]2c2ccn(C)c(=O)c2)c(Cl)c1` (racemic) [Structure 65] was tested, and the IC50 [1] was 6.5 nM and the IC50 [2] was 6 nM.
In the case of `COc1cc(CCNC(C)=O)c(-c2ccc([C@H]3CNCC[C@@H]3c3ccn(C)c(=O)c3)c(Cl)c2)cc1OC` (racemic) [Structure 66], the IC50 [1] is reported as 1320 nM and the IC50 [2] is reported as 4900 nM.
In the case of `CC(=O)NCCc1ccccc1-c1ccc([C@H]2CNCC[C@@H]2c2cccnc2)c(C)c1` [Structure 4], the IC50 [1] is reported as 6.1 nM and the IC50 [2] is reported as 28 nM.
With `CC(=O)NCCc1ccccc1-c1ccc([C@@H]2CNCC[C@H]2c2cccnc2)c(C)c1` [Structure 5] the IC50 [1] was 1410 nM and the IC50 [2] was 7280 nM.
`CC(=O)NCCc1ccccc1-c1ccc([C@H]2CNCC[C@@H]2c2cccnc2)c(Cl)c1` [Structure 13] was tested, and the IC50 [1] was 1.5 nM and the IC50 [2] was 4.1 nM.
`CC(=O)NCCc1ccccc1-c1ccc([C@@H]2CNCC[C@H]2c2cccnc2)c(Cl)c1` [Structure 14] was tested, and the IC50 [1] was 2630 nM and the IC50 [2] was over 9500 nM.
`CC(=O)NCCc1ccccc1-c1ccc([C@H]2CNCC[C@@H]2c2cc(F)cc(F)c2)c(C)c1` [Structure 16] gave an IC50 [1] of 0.59 nM and an IC50 [2] of 16 nM.
`CC(=O)NCCc1ccccc1-c1ccc([C@@H]2CNCC[C@H]2c2cc(F)cc(F)c2)c(C)c1` [Structure 17] gave an IC50 [1] of 530 nM and an IC50 [2] of 11600 nM.
With `CC(=O)NCCc1ccccc1-c1ccc([C@H]2CNCC[C@@H]2c2ccn(C)c(=O)c2)c(Cl)c1` [Structure 59] the IC50 [1] was 2.1 nM and the IC50 [2] was 3.4 nM.
For `CC(=O)NCCc1ccccc1-c1ccc([C@@H]2CNCC[C@H]2c2ccn(C)c(=O)c2)c(Cl)c1` [Structure 60], the IC50 [1] was 710 nM and the IC50 [2] was 1350 nM.
`O[C@]1(c2ccc(F)c(F)c2)CCNC[C@@H]1c1cc(-c2ccc(F)cc2Br)no1` [Structure 67] gave an IC50 [1] of 400 nM and an IC50 [2] of 8650 nM.
`O[C@]1(c2ccc(F)c(F)c2)CCNC[C@@H]1c1cc(-c2c(Cl)cccc2Cl)no1` [Structure 68] was tested, and the IC50 [1] was 1210 nM and the IC50 [2] was over 9500 nM.
`O[C@]1(c2ccc(F)c(F)c2)CCNC[C@@H]1c1onc(-c2c(Cl)cccc2Cl)c1Br` [Structure 70] gave an IC50 [1] of 3.7 nM and an IC50 [2] of 130 nM.
In the case of `O[C@]1(c2ccc(F)c(F)c2)CCNC[C@@H]1c1onc(-c2cccc(Cl)c2Cl)c1Br` [Structure 71], the IC50 [1] is reported as 0.21 nM and the IC50 [2] is reported as 7.8 nM.
In the case of `O[C@]1(c2ccc(F)c(F)c2)CCNC[C@@H]1c1onc(-c2ccccc2Cl)c1Br` [Structure 72], the IC50 [1] is reported as 1.1 nM and the IC50 [2] is reported as 27 nM.
For `Cc1cccc(-c2noc([C@H]3CNCC[C@]3(O)c3ccc(F)c(F)c3)c2Br)c1C` [Structure 73], the IC50 [1] was 0.47 nM and the IC50 [2] was 21 nM.
`Cc1ccc(Cl)c(-c2noc([C@H]3CNCC[C@]3(O)c3ccc(F)c(F)c3)c2Br)c1F` [Structure 74] showed an IC50 [1] of 4.9 nM and an IC50 [2] of 430 nM.
`O[C@]1(c2ccc(F)c(F)c2)CCNC[C@@H]1c1onc(-c2cccc3ccccc23)c1Br` [Structure 75] was tested, and the IC50 [1] was 0.064 nM and the IC50 [2] was 4.7 nM.
With `CC(=O)NCCc1ccccc1-c1noc([C@H]2CNCC[C@]2(O)c2ccc(F)c(F)c2)c1Br` [Structure 76] the IC50 [1] was 0.36 nM and the IC50 [2] was 1.6 nM.
Work on `Fc1ccc([C@@]2(F)CCNC[C@@H]2c2onc(-c3cccc(Cl)c3Cl)c2Br)cc1F` [Structure 77] yielded an IC50 [1] of 0.25 nM and an IC50 [2] of 7.9 nM.
Work on `CC(O)c1c([C@H]2CNCC[C@]2(O)c2ccc(F)c(F)c2)noc1-c1c(Cl)cccc1Cl` (stereo partly drawn) [Structure 78] yielded an IC50 [1] of 1.8 nM and an IC50 [2] of 24 nM.
`O[C@]1(c2ccc(F)c(F)c2)CCNC[C@@H]1c1cc(-c2c(Cl)cccc2Cl)on1` [Structure 79] was tested, and the IC50 [1] was 1330 nM and the IC50 [2] was over 28000 nM.
Work on `CC(=O)NCCc1ccccc1-c1onc([C@H]2CNCC[C@]2(O)c2ccc(F)c(F)c2)c1Br` [Structure 80] yielded an IC50 [1] of 0.23 nM and an IC50 [2] of 0.6 nM.
With `CC(=O)NCCc1ccccc1-c1onc([C@H]2CNCC[C@]2(F)c2ccc(F)c(F)c2)c1Br` [Structure 81] the IC50 [1] was 0.053 nM and the IC50 [2] was 0.44 nM.
Compound `CO[C@]1(c2ccc(F)c(F)c2)CCNC[C@@H]1c1noc(-c2ccccc2CCNC(C)=O)c1Br` [Structure 82] has an IC50 [1] of 0.16 nM and an IC50 [2] of 1.2 nM.
Work on `CC(=O)NCCc1ccccc1-c1onc([C@H]2CNCC[C@]2(O)c2ccc(F)c(F)c2)c1C(C)=O` [Structure 83] yielded an IC50 [1] of 2.8 nM and an IC50 [2] of 4.2 nM.
`COC(=O)NCCc1ccccc1-c1onc([C@H]2CNCC[C@]2(O)c2ccc(F)c(F)c2)c1C(C)=O` [Structure 84] was tested, and the IC50 [1] was 10 nM and the IC50 [2] was 93 nM.
In the case of `CC(=O)NCCc1ccccc1-c1onc([C@H]2CNCC[C@]2(O)c2ccc(F)c(F)c2)c1C(C)O` (stereo partly drawn) [Structure 85], the IC50 [1] is reported as 4.3 nM and the IC50 [2] is reported as 4.5 nM.
`CC(=O)NCCc1cc(F)ccc1-c1onc([C@H]2CNCC[C@]2(O)c2ccc(F)c(F)c2)c1Br` [Structure 86] showed an IC50 [1] of 0.14 nM and an IC50 [2] of 0.68 nM.
`CC(=O)NCCc1c(F)cccc1-c1onc([C@H]2CNCC[C@]2(O)c2ccc(F)c(F)c2)c1Br` [Structure 87] was tested, and the IC50 [1] was 0.16 nM and the IC50 [2] was 0.62 nM.
For `O=C(CO)NCCc1ccccc1-c1onc([C@H]2CNCC[C@]2(O)c2ccc(F)c(F)c2)c1Br` [Structure 88], the IC50 [1] was 0.38 nM and the IC50 [2] was 1 nM.
`COC[C@H](C)COCc1ccc([C@@]2(O)CCNC[C@@H]2c2noc(-c3ccccc3CCNC(C)=O)c2Br)cc1` [Structure 89] was tested, and the IC50 [1] was 0.32 nM and the IC50 [2] was 1.2 nM.
Compound `CC(=O)NCCc1ccccc1-c1onc([C@H]2CNCC[C@]2(OCc2c[nH]nn2)c2ccc(F)c(F)c2)c1Br` [Structure 90] has an IC50 [1] of 0.63 nM and an IC50 [2] of 4.4 nM.
For `O[C@]1(c2ccc(F)c(F)c2)CCNC[C@@H]1c1cn(-c2ccc(F)cc2Br)nn1` [Structure 91], the IC50 [1] was 2900 nM and the IC50 [2] was 9470 nM.
`Cn1c(-c2ccccc2)cnc1[C@H]1CNCC[C@]1(O)c1ccc(F)c(F)c1` [Structure 92] showed an IC50 [1] of 1990 nM and an IC50 [2] of over 28000 nM.
Work on `C[C@H]1C[C@H](c2ccc(F)c(F)c2)[C@@H](c2nnc(-c3cccc(Cl)c3Cl)n2C2CC2)CN1` [Structure 93] yielded an IC50 [1] of 0.14 nM and an IC50 [2] of 0.62 nM.

From patent US20120035214A1, “RENIN INHIBITORS” (Merck Canada Inc., priority 2009, published 2012)
